Source: ChEMBL document CHEMBL5696443 (Clin Cancer Res, 2016)
Activity calls are given as the source filed them. The rule behind the calls is not given here.

Key:
[1] = target: Protein kinase C delta type (Homo sapiens) (UniProt Q05655); assay: Inhibition of human PRKCD at 1 uM using ERMRPRKRQGSVRRRV as substrate in presence of [gamma33P]-ATP by HotSpot assay relative to control
[2] = Average plasma concentration in CB-17/SCID mouse implanted with mouse BaF3 cells expressing EML4-ALK G1202R mutant at 50 mg/kg, po administered once daily for 7 days by LC-MS/MS analysis; format: ADME, organism-based; settings: in vivo, 168 h, time 7 day
[3] = target: Mitogen-activated protein kinase 13 (Homo sapiens) (UniProt O15264); assay: Inhibition of human MAPK13 at 1 uM using MBP as substrate in presence of [gamma33P]-ATP by HotSpot assay relative to control
[4] = target: Serine/threonine-protein kinase 26 (Homo sapiens) (UniProt Q9P289); assay: Inhibition of human STK26 at 1 uM using MBP as substrate in presence of [gamma33P]-ATP by HotSpot assay relative to control
[5] = target: Mitogen-activated protein kinase kinase kinase 14 (Homo sapiens) (UniProt Q99558); assay: Inhibition of human MAP3K14 at 1 uM using MBP as substrate in presence of [gamma33P]-ATP by HotSpot assay relative to control
[6] = target: Serine/threonine-protein kinase 3 (Homo sapiens) (UniProt Q13188); assay: Inhibition of human STK3 at 1 uM using MBP as substrate in presence of [gamma33P]-ATP by HotSpot assay relative to control
[7] = target: Myosin light chain kinase, smooth muscle (Homo sapiens) (UniProt Q15746); assay: Inhibition of human MYLK at 1 uM using KKLNRTLSFAEPG as substrate in presence of [gamma33P]-ATP by HotSpot assay relative to control
[8] = target: Insulin-like growth factor 1 receptor (Homo sapiens, UniProt P08069); assay: Inhibition of human IGF1R using KKKSPGEYVNIEFG as substrate in presence of [gamma33P]-ATP by HotSpot assay
[9] = target: Calcium/calmodulin-dependent protein kinase type IV (Homo sapiens) (UniProt Q16566); assay: Inhibition of human CAMK4 at 1 uM using KKLNRTLSFAEPG as substrate in presence of [gamma33P]-ATP by HotSpot assay relative to control
[10] = Toxicity in CB-17/SCID mouse implanted with ALK positive mouse BaF3 cells expressing EML4-ALK G1202R mutant assessed as effect on body weight at 25 to 50 mg/kg, po administered once daily and measured after 6 days; format: organism-based; settings: in vivo, 144 h, dose 25-50 mg/kg, time 6 day
[11] = target: Serine/threonine-protein kinase B-raf (Homo sapiens) (UniProt P15056); assay: Inhibition of human BRAF at 1 uM using MEK1 as substrate in presence of [gamma33P]-ATP by HotSpot assay relative to control
[12] = target: Platelet-derived growth factor receptor alpha (Homo sapiens) (UniProt P16234); assay: Inhibition of human PDGFRalpha at 1 uM using poly (Glu, Tyr)4:1 as substrate in presence of [gamma33P]-ATP by HotSpot assay relative to control
NCI-H2228 = settings: time 72 hrs
[13] = target: Mitogen-activated protein kinase kinase kinase kinase 2 (Homo sapiens) (UniProt Q12851); assay: Inhibition of human GCK at 1 uM using MBP as substrate in presence of [gamma33P]-ATP by HotSpot assay relative to control
[14] = target: Calcium/calmodulin-dependent protein kinase type II subunit beta (Homo sapiens) (UniProt Q13554); assay: Inhibition of human CAMK2b at 1 uM using KKALRRQETVDAL as substrate in presence of [gamma33P]-ATP by HotSpot assay relative to control
[15] = target: Serine/threonine-protein kinase Nek2 (Homo sapiens) (UniProt P51955); assay: Inhibition of human NEK2 at 1 uM using MBP substrate in presence of [gamma33P]-ATP by HotSpot assay relative to control
[16] = system: EML4-ALK (Homo sapiens), Q9UM73+Q9HC35 [L1196M]; settings: BaF3, dose 500.0 nmol/L, time 3-5 weeks
[17] = target: Dual specificity protein kinase CLK4 (Homo sapiens) (UniProt Q9HAZ1); assay: Inhibition of human CLK4 at 1 uM using MBP as substrate in presence of [gamma33P]-ATP by HotSpot assay relative to control
Homo sapiens = organism: Homo sapiens; assay: Inhibition of human BRAF V600E at 1 uM using MEK1 as substrate in presence of [gamma33P]-ATP by HotSpot assay relative to control
[18] = system: Serine/threonine-protein kinase A-Raf (Homo sapiens), P10398 [Y301D,Y302D]; assay: Inhibition of human ARAF Y301D/Y302D double mutant at 1 uM using MEK1 as substrate in presence of [gamma33P]-ATP by HotSpot assay relative to control
[19] = target: Calcium/calmodulin-dependent protein kinase type 1D (Homo sapiens) (UniProt Q8IU85); assay: Inhibition of human CAMK1D at 1 uM using KKALRRQETVDAL as substrate in presence of [gamma33P]-ATP by HotSpot assay relative to control
[20] = target: Serine/threonine-protein kinase 24 (Homo sapiens) (UniProt Q9Y6E0); assay: Inhibition of human STK24 at 1 uM using MBP as substrate in presence of [gamma33P]-ATP by HotSpot assay relative to control
in vitro = settings: mouse, BaF3 cells
[21] = target: Serine/threonine-protein kinase MARK1 (Homo sapiens, UniProt Q9P0L2); assay: Inhibition of human MARK1 using KKKVSRSGLYRSPSMPENLNRPR as substrate in presence of [gamma33P]-ATP by HotSpot assay
[22] = target: Platelet-derived growth factor receptor beta (Homo sapiens) (UniProt P09619); assay: Inhibition of human PDGFRbeta at 1 uM using poly (Glu, Tyr)4:1 as substrate in presence of [gamma33P]-ATP by HotSpot assay relative to control
[23] = target: Tyrosine-protein kinase ABL1 (Homo sapiens, UniProt P00519, Q252H); assay: Inhibition of human ABL1 Q252H mutant using EAIYAAPFAKKK as substrate in presence of [gamma33P]-ATP by HotSpot assay
[24] = target: Serine/threonine-protein kinase Nek6 (Homo sapiens) (UniProt Q9HC98); assay: Inhibition of human NEK6 at 1 uM using casein as substrate in presence of [gamma33P]-ATP by HotSpot assay relative to control
[25] = target: Homeodomain-interacting protein kinase 1 (Homo sapiens) (UniProt Q86Z02); assay: Inhibition of human HIPK1 at 1 uM using MBP as substrate in presence of [gamma33P]-ATP by HotSpot assay relative to control
Chain of Homeodomain-interacting protein kinase 1 (Homo sapiens) (Q86Z02 whole entry, looked up): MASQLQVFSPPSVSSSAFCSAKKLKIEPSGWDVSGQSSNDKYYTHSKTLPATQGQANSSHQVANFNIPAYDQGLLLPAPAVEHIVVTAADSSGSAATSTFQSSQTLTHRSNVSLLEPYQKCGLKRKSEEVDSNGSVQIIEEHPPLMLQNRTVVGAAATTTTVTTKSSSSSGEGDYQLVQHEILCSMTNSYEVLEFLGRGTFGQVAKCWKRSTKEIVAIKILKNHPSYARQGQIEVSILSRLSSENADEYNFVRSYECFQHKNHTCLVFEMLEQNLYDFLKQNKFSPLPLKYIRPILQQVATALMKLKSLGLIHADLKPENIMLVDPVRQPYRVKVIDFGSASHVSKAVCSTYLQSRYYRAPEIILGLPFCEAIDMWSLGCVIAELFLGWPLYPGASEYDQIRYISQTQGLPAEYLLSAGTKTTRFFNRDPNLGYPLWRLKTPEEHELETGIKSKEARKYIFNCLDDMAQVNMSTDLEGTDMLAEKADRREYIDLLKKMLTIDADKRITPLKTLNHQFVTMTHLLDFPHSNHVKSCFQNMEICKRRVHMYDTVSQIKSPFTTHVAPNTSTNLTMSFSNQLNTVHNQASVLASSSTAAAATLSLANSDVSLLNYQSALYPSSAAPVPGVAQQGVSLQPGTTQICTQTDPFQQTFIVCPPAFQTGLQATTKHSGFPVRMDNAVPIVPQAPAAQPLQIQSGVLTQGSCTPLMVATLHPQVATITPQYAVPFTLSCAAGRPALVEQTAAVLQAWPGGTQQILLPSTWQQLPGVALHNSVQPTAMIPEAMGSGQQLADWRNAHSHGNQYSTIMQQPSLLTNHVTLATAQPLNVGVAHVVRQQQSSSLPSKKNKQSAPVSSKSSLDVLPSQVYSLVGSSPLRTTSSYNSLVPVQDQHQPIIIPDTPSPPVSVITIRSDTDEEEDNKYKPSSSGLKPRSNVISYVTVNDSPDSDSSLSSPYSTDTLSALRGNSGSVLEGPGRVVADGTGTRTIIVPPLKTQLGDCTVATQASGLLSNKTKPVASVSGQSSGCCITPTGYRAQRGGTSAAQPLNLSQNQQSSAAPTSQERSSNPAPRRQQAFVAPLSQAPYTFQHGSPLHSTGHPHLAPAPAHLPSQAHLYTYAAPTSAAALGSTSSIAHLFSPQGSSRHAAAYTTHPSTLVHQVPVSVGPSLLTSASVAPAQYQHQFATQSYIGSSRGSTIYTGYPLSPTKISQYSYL

Chain of Protein kinase C delta type (Homo sapiens) (Q05655 whole entry, looked up): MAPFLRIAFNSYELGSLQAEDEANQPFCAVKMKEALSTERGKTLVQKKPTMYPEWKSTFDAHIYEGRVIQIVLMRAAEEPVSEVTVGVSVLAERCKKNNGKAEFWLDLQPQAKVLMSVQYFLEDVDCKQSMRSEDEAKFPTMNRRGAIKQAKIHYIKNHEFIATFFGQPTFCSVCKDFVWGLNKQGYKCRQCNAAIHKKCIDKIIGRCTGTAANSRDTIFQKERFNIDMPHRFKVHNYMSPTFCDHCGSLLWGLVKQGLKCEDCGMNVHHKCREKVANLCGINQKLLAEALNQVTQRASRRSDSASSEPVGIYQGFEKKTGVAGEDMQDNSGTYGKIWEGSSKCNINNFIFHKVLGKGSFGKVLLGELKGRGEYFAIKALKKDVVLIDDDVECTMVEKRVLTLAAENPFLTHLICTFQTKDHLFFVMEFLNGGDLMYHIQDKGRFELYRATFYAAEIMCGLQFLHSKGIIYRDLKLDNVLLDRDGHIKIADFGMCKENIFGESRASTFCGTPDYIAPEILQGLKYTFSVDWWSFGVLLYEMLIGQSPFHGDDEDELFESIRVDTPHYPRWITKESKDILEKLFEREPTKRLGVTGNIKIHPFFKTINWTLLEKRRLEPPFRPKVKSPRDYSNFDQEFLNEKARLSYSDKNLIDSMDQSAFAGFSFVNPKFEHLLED
Chain of Mitogen-activated protein kinase kinase kinase 14 (Homo sapiens) (Q99558 whole entry, looked up): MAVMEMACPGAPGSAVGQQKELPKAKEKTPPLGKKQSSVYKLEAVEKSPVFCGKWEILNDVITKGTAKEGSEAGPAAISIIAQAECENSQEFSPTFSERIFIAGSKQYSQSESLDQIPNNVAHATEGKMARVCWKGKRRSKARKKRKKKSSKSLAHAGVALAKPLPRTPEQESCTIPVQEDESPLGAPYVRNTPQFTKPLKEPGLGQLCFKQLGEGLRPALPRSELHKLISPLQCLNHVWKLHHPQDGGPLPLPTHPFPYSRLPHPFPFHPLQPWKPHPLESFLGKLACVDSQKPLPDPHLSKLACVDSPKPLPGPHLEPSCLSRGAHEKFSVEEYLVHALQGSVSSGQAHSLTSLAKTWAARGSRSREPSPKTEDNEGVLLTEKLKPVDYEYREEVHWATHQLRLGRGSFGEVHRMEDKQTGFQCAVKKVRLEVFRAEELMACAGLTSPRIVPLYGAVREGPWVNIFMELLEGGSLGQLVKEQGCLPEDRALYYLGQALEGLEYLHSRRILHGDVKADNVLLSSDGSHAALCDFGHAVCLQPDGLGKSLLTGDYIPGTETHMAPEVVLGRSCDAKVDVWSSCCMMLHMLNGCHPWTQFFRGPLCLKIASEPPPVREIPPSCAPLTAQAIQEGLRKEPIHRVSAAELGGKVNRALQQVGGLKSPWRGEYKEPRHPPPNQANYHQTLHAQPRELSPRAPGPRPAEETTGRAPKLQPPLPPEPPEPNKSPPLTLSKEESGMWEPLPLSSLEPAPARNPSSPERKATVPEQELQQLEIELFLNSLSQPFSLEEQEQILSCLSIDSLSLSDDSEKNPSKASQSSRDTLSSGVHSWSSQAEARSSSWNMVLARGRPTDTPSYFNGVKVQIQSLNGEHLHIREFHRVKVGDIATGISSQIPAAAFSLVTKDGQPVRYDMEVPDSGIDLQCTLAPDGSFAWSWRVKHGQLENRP
Chain of Serine/threonine-protein kinase Nek2 (Homo sapiens) (P51955 whole entry): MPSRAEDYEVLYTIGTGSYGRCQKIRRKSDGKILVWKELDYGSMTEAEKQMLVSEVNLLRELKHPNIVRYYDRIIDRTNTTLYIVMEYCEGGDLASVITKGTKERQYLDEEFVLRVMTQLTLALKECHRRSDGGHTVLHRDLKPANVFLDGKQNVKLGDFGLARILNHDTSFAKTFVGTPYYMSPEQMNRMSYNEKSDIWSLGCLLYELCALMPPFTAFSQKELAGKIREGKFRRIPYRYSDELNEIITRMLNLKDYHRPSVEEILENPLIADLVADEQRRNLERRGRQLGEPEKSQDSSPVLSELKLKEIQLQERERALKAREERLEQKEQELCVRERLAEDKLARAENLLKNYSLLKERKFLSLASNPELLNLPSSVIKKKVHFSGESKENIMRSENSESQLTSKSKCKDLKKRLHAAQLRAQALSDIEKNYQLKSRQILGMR
Chain of Calcium/calmodulin-dependent protein kinase type 1D (Homo sapiens) (Q8IU85 whole entry, looked up): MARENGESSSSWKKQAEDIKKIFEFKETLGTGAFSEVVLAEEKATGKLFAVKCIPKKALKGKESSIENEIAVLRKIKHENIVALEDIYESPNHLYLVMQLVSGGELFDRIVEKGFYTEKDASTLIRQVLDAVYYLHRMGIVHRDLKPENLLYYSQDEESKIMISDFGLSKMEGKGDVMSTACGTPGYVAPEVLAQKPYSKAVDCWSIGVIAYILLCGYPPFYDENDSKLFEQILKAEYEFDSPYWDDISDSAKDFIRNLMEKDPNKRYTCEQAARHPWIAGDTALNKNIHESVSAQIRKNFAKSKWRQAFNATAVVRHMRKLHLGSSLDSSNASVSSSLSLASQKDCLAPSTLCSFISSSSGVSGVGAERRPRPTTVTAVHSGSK
Chain of Dual specificity protein kinase CLK4 (Homo sapiens) (Q9HAZ1 whole entry, looked up): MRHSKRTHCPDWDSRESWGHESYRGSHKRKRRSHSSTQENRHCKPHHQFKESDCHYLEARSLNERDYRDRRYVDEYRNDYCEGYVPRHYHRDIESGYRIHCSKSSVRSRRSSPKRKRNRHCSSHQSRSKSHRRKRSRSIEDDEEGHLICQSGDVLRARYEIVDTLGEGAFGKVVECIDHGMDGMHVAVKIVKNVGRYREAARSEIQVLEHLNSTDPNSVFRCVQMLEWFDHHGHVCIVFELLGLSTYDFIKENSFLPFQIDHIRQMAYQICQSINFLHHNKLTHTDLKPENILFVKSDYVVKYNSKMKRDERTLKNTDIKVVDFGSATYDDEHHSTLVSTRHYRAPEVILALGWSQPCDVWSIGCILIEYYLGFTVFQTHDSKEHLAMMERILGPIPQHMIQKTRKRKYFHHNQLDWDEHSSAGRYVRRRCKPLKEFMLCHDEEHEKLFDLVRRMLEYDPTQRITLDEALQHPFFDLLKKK
Chain of Mitogen-activated protein kinase 13 (Homo sapiens) (O15264 whole entry): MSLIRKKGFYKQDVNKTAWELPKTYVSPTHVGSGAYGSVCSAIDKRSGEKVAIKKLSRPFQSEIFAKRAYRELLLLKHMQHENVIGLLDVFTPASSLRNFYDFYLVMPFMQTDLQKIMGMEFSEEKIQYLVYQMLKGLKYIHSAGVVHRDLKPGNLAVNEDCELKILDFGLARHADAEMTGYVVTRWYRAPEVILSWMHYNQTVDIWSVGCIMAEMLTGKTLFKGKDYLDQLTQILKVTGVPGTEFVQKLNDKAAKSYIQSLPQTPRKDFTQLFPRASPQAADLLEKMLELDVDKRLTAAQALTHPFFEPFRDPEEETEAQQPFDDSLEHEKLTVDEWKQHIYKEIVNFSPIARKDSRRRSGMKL
Chain of Serine/threonine-protein kinase 26 (Homo sapiens) (Q9P289 2-416 limits assumed): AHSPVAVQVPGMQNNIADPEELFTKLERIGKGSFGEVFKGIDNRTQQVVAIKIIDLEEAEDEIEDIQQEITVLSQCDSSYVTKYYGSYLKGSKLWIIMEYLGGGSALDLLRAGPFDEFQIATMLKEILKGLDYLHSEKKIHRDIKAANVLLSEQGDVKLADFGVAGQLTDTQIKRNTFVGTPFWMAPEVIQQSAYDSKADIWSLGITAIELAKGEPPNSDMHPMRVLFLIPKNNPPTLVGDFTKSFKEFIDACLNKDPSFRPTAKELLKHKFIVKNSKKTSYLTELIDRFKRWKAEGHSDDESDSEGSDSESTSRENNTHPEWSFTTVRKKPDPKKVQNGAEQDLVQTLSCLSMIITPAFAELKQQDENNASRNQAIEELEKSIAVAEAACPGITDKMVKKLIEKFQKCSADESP

COc1cc(N2CCC(N3CCN(C)CC3)CC2)ccc1Nc1ncc(Cl)c(Nc2ccccc2P(C)(C)=O)n1 [BRIGATINIB]
inhibition [1]: < 90% | Cave [2]: 5.151 µM | inhibition [3]: < 90% | inhibition [4]: < 90% | inhibition [5]: < 90% | inhibition [6]: < 90% | inhibition [7]: < 90% | IC50 [8]: 73 nM | inhibition [9]: < 90% | Activity [10]: Non-Toxic | inhibition [11]: < 90% | inhibition [12]: < 90% | GI50 (NCI-H2228): 10 nM | inhibition [13]: < 90% | inhibition [14]: < 90% | inhibition [15]: < 90% | inhibition [16]: Active | inhibition [17]: < 90% | inhibition (Homo sapiens): < 90% | inhibition [18]: < 90% | inhibition [19]: < 90% | inhibition [20]: < 90% | IC50 at 72 h (in vitro): 3210 nM | IC50 [21]: 127 nM | inhibition [22]: < 90% | IC50 [23]: 171 nM | inhibition [24]: < 90% | inhibition [25]: < 90%
